Measured values from paper PMC4199632, “Exploring the Anti-Cancer Activity of Novel Thiosemicarbazones Generated through the Combination of Retro-Fragments: Dissection of Critical Structure-Activity Relationships” (PLoS ONE, 2014).
Like-named read-outs stand apart in the source and are kept apart here.

Experiments:
[1] = test system: HeLa cervical carcinoma cells; assay: Proliferation assay (crystal violet, 72 h); format: cell-based; conditions: Homo sapiens, 72 h incubation, mean ±SD (3 experiments)
In short: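 Cells seeded 24 h before treatment, then exposed at 37 °C for 72 h (SK-N-MC, Raji, HeLa) or 96 h (HCT116, NHDF); final DMSO <0.05%. Read-outs: MTT at 570 nm (SK-N-MC, Raji), crystal violet at 595 nm (HeLa), MTS at 490 nm (HCT116, NHDF); IC50 is 50% absorbance versus untreated control, triplicates repeated three times.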

SK-N-MC cells = assay: Inhibition of cellular 59Fe uptake from 59Fe2-Tf; format: cell-based, human; conditions: chelator 25 µM; for Internalized 59Fe uptake from 59Fe2-Tf (% of the control): 59Fe2-Tf 0.75 µM, 3 h/37°C
Description: The iron transport protein, Tf (Sigma-Aldrich), was labeled with ^59Fe (PerkinElmer Life and Analytical Sciences, Boston, MA) to form ^59Fe2-Tf using standard methods, [7]. Unbound ^59Fe was removed by passage through a Sephadex G25 column and was followed by exhaustive dialysis, [7].
The ability of the chelators to prevent the cellular uptake of ^59Fe from ^59Fe2-Tf was examined using standard methods, [14], [17], [18], [50]. A monolayer of SK-N-MC cells was incubated with medium containing ^59Fe2-Tf (0.75 µM) and the chelator (25 µM) for 3 h at 37°C. The medium was then removed and the cells were washed four times with ice-cold PBS. The cells were then incubated for 30 min at 4°C with the general protease, Pronase (1 mg/mL; Sigma-Aldrich), to remove membrane-bound ^59Fe. The cells were removed using a plastic spatula and centrifuged at 14,000 rpm/1 min to separate internalized from membrane-bound ^59Fe. The cell pellet was resuspended in 1 mL of PBS and the internalized ^59Fe was measured on a γ-scintillation counter. Internalized ^59Fe uptake was calculated as a percentage of the control (medium alone). Again, the novel ligands were compared to DFO and Dp44mT as their ability to inhibit cellular ^59Fe uptake has been extensively characterized using SK-N-MC cells, [14], [17], [18], [50].
Figure 8 Effect of (A) series 1, (B) series 2, (C) series 3, (D) series 4, (E) series 5 and (F) series 6 chelators, relative to the controls DFO and Dp44mT, on ^59Fe uptake from ^59Fe-transferrin by SK-N-MC cells. Cells were incubated for 3 h/37°C with ^59Fe-transferrin (0.75 µM) in the presence or absence of the chelators (25 µM). At the end of this incubation, cells were washed 4 times with ice-cold PBS. Internalization of ^59Fe was assessed by incubation for 30 min/4°C with the protease, Pronase (1 mg/mL). Cellular ^59Fe was then assessed using a γ-scintillation counter. Results are mean ±SD (3 experiments).

[2] = test system: HCT116 p53+/+, HCT116 p53−/−, Raji, HeLa, SK-N-MC and NHDF cells; assay: Proliferation assay, ranges stated over several cell-types; format: cell-based, human; conditions: for IC50: Homo sapiens; for Therapeutic index, NHDF relative to HCT116 cells: range over HCT116 p53+/+ and p53−/− and over the compounds named
Description: The human cancer cell types (neuroepithelioma (SK-N-MC), colon cancer (HCT116 with wild-type p53 (p53^+/+)), Burkitt's lymphoma (Raji) and cervical carcinoma (HeLa)) cells and normal human dermal fibroblasts (NHDF) were obtained from the American Type Culture Collection (ATCC, Manassas, VA, USA). HCT116 null p53 (p53^−/−) cells were obtained from the Maria Sklodowska-Curie Memorial Cancer Center and Institute of Oncology, Poland.
The SK-N-MC cells were cultured in minimum essential medium (MEM; Life Technologies, Grand Island, New York, USA) containing 10% (v/v) fetal bovine serum (FBS; Life Technologies), 1 mM sodium pyruvate (Life Technologies), 1% (v/v) non-essential amino acids (Life Technologies), 2 mM L-glutamine (Life Technologies), 100 U/mL penicillin (Life Technologies), 100 µg/mL streptomycin (Life Technologies) and 0.28 µg/mL fungizone (Bristol Myers Squibb Pharmaceuticals, Montreal, Canada). The HCT116 and NHDF cells were grown in Dulbecco's modified Eagle's medium (DMEM; Sigma-Aldrich) supplemented with 12% (v/v) heat-inactivated FBS (HCT116; Life Technologies) or 15% (v/v) FBS (NHDF; Life Technologies), 100 µg/mL of gentamicin (Polfa Warszawa S.A., Warsaw, Poland), 100 µg/mL of streptomycin (Polfa) and 100 U/mL of penicillin (Polfa). The Raji and HeLa cells were cultured in Roswell Park Memorial Institute medium (RPMI-1640; Sigma-Aldrich) with the addition of 10% (v/v) heat-inactivated FBS (Life Technologies) and the supplements described for SK-N-MC cells above. All cell lines were cultured under standard conditions at 37°C in a humidified atmosphere at 5% CO2 and were subcultured every 3–4 days as required.
The cells were seeded in 96-well plates (SK-N-MC: 1.5×10^4 cells/well; HeLa: 5.0×10^3 cells/well; Raji: 3.0×10^3 cells/well; HCT116: 3.5×10^3 cells/well; NHDF: 3.0×10^3 cells/well) 24 h prior to the addition of the novel compounds. The assays were performed using a 72 h (SK-N-MC, Raji, HeLa) or 96 h (HCT 116, NHDF) incubation period with the agents at 37°C. […] Additionally, DFO and Dp44mT were included as positive controls in all experiments as their activity is well characterized, [42], [50].
Chelator stock solutions were prepared in DMSO and diluted in media so that the final [DMSO] <0.05%. The results were expressed as a percentage of the control and the resulting IC50 values were calculated using GraphPad Prism 5 (GraphPad Software, Inc., La Jolla, CA, USA). The IC50 was defined as the concentration necessary to reduce the absorbance to 50% of the untreated control. Each individual compound was tested in triplicate in a single experiment, with each experiment being repeated three times. After incubation of HCT 116 and NHDF cells with the tested compounds, 20 µL of the CellTiter 96 Aqueous One Solution - MTS (Promega, Madison, WI, USA) solution was added to each well (with 100 µL of DMEM without phenol red) and incubated for 1 h/37°C. The optical density of the samples was analyzed at 490 nm.
MTT (3-[4,5-dimethylthiazol-2-yl]-2,5-diphenyltetrazolium bromide) was used to evaluate the anti-proliferative effects of the chelators in SK-N-MC and Raji cells. Following incubation with the investigated compounds, 10 µL of MTT (5 mg/mL in PBS; Sigma-Aldrich) was added to each well. After a 2 h (SK-N-MC) or 4 h (Raji) incubation, the plates were centrifuged, and the cells were lysed with 100 µL of 10% SDS-50% isobutanol in 0.01 M HCl (SK-N-MC) or DMSO (Raji). The absorbance was measured at 570 nm. The anti-proliferative effects of these novel agents on HeLa cells were estimated using crystal violet staining (0.5% crystal violet solution for 10 min). Finally, the wells were rinsed with water and the cells were lysed with 2% SDS. The optical density of the samples was analyzed at 595 nm.

[3] = test system: murine M109 lung carcinoma; parameters: method as in PMID 15150082; conditions: five day treatment, 0.4 mg/kg, mice; cited from earlier work
[4] = parameters: method as in PMID 17003122; conditions: high, non-optimal doses; cited from earlier work
[5] = HCT-116, range over HCT116 p53+/+ and p53−/− cells and over the compounds named, read-out: IC50 range in HCT116 cells

IC50 [1]	Compound	Internalized 59Fe uptake from 59Fe2-Tf (% of the control) (SK-N-MC cells)	Inhibition of 59Fe uptake compared with controls (SK-N-MC cells)	further results
10100 ± 3600 nM	CN(C(=S)N/N=C/c1ccccc1O)C1CCCCC1 [6f]	3.6–11.5%	–	–
200 ± 70 nM	S=C(N/N=C/c1ccc2ccccc2n1)N1CCN(c2ccccc2)CC1 [2b]	–	comparable inhibition of ^59Fe uptake to that of DFO	IC50 [2, 5]: 0.8 to 90 nM; Therapeutic index, NHDF relative to HCT116 cells [2]: 0.4–0.8
40 ± 10 nM	CN(C)C(=S)NN=C(c1ccccn1)c1ccccn1 [Dp44mT, di-2-pyridylketone 4,4-dimethyl-3-thiosemicarbazone, reference compound]	6%	–	Growth of murine M109 lung carcinoma (% of the control) [3]: 47%; IC50 ([2]; range over the cancer cell-types of Table 1, read-out: IC50 range, anti-cancer activity): 2 to 40 nM; Toxicity finding [4]: cardiac fibrosis
4090 ± 2070 nM	CN(C(=S)N/N=C/c1cnc2ccccc2n1)C1CCCCC1 [5f]	–	comparable inhibition of ^59Fe uptake to that of DFO	–
430 ± 160 nM	CCN1CCN(C(=S)N/N=C/c2ccc3ccccc3n2)CC1 [2a]	–	comparable ability to inhibit ^59Fe uptake to the control medium	–
720 ± 70 nM	S=C(NN=C(c1ccccn1)c1ccccn1)N1CCN(c2cnccn2)CC1 [1e]	–	–	–
940 ± 450 nM	CN(C(=S)N/N=C/c1ccc2ccccc2n1)C1CCCCC1 [2f]	–	comparable inhibition of ^59Fe uptake to that of DFO	IC50 [2, 5]: 0.8 to 90 nM; Therapeutic index, NHDF relative to HCT116 cells [2]: 0.4–0.8

Compound	IC50 [1]	Internalized 59Fe uptake from 59Fe2-Tf (% of the control) (SK-N-MC cells)	Inhibition of 59Fe uptake compared with controls (SK-N-MC cells)	further results
CC(=O)N(O)CCCCCNC(=O)CCC(=O)N(O)CCCCCNC(=O)CCC(=O)N(O)CCCCCN [DFO, desferrioxamine, reference compound]	14300 ± 960 nM	83%	–	–
